Experiments:
Type in all cases: cell-based
Aerobic Bacteria = assay: Antimicrobial efficacy on fresh-cut vegetables, aerobic bacteria; conditions: 30 second exposure to process water
Description: (§1) Vegetable processing water testing was done using the same antimicrobial agents as in laboratory aqueous system testing. The varying concentrations of each agent are listed in the results section. Municipal tap water was the diluent.
(§2) The reduction of microorganisms in vegetable processing water treated with peroxyacetic acid or a peroxyacetic acid/peroxyoctanoic acid mixture was determined. Testing was done in two separate recycled water systems. In both systems, cut vegetables fell into a water stream that carried them to a de-watering area where they were collected for further processing. The water that the vegetables traveled in was routed to a balance tank that fed back into the original water stream thus completing the process loop. One system was used to wash cut, raw celery or cabbage. The other system was used to transport cut, raw potatoes to a blancher.
(§3) Microorganism reduction on vegetable surfaces in the transport and process water was determined while water analyses were being conducted. Ten samples of each cut vegetable were collected just prior to falling into the process water stream and just after de-watering.
(§4) Eleven grams of each sample were transferred to bag containing 99 mL of sterile phosphate buffered water. Contents of the bag were mixed in a Stomacher brand mixer for approximately 1 minute. Afterwards, 1 mL of the mixture was plated on Petrifilm brand Aerobic Plate Count, Coliform Count and Yeast & Mold Count media. 1 mL quantities of 100-fold serial dilutions were also plated. Petrifilms were incubated and enumerated as described above in this Example.
(§5) The same analysis was used to evaluate the significance of reduction on vegetable surfaces.

Cladosporium species = assay: Rate of fungus kill in use-solution (mold conidia); conditions: Cladosporium sp., 80 ppm total peracid, 25° C.
Description: (§6) Routine transfer to Sabouraud Dextrose agar slants maintained cultures of Aspergillus species (from onion processing water), Penicillium species (from celery processing water) and Cladosporium species (from potato processing water). Conidia suspensions of each mold were prepared by subculturing each mold to Sabouraud Dextrose agar plates and incubating until thick aerial mycelia with conidia were evident. Conidia were harvested by adding approximately 10 mL of phosphate buffered water to the plate, scraping the mycelia and collecting the suspension in a flask. The suspension was filtered through sterile gauze to remove large mycelia fragments from the conidia. The resulting suspension was used for testing.
(§7) Two antimicrobial agents were used for testing. The first agent contained peroxyacetic acid. The second contained a peroxyacetic acid/peroxyoctanoic acid mixture. Both agents were diluted in sterile deionized water to achieve a total peracid concentration of 80 ppm. The composition of the use-solutions were as follows:
(§8) The rate at which peroxyacetic acid and a peroxyacetic acid/peroxyoctanoic acid mixture killed fungi was measured by inoculating use-solutions of each antimicrobial agent with fungi and then quantifying survivors after various exposure times.
(§9) Testing was performed in duplicate. 99 mL of each antimicrobial use-solution was transferred to a 250 mL Erlenmeyer flask and allowed to equilibrate to 25° C. The liquid in the flask was swirled vigorously in a rapid circular motion and 1 mL of a fungus suspension was added. After 30 seconds, 2, 5 or 10 minutes 1 mL quantities of the use-solution were transferred to 9 mL of an inactivating solution including 0.1% sodium thiosulfate. 1 mL quantities of the inactivating solution were pour-plated using Sabouraud Dextrose agar. Serial 100-fold dilutions of the inactivating solution were also plated. Agar plates were incubated for 72 hours at 26° C. before counting survivors. The log reduction of fungi due to the antimicrobial agent was determined by comparing reduction to a water control.

Aspergillus species = assay: Rate of fungus kill in use-solution (mold conidia); conditions: Aspergillus sp., 80 ppm total peracid, 25° C.
Description: as §6, §7, §8, §9

Penicillium species = assay: Rate of fungus kill in use-solution (mold conidia); conditions: Penicillium sp., 80 ppm total peracid, 25° C.
Description: as §6, §7, §8, §9

Yeast & Mold = assay: Antimicrobial efficacy on fresh-cut vegetables, yeast & mold; conditions: 30 second exposure to process water
Description: as §1, §2, §3
Eleven grams of each sample were transferred to bag containing 99 mL of sterile phosphate buffered water. Contents of the bag were mixed in a Stomacher brand mixer for approximately 1 minute. […] 1 mL quantities of 100-fold serial dilutions were also plated. […]

Listeria monocytogenes = assay: Kill of pathogenic bacteria on tomato surfaces and in the wash solution
Description: The following procedure was employed for determining whether a composition killed pathogenic bacteria (e.g. Escherichia coli O157:H7, Listeria monocytogenes, or Salmonella javiana) on the surface of a fruit or vegetable. Bacteria were applied to tomato surfaces and allowed a 1-2 hour attachment time. […] After 1 minute, tomatoes were transferred to a solution that neutralized the peroxy acids and peroxides and massaged for 3 minutes to remove attached bacteria. The number of attached bacteria that survived treatment was determined using standard agar plating technique. The number of bacteria that “fell off” the tomato into the water or peroxyacetic/peroxyoctanoic acid mixture according to the present invention, and survived, was also determined by neutralization and agar plating technique. A similar experiment was conducted employing a peroxyacetic acid antimicrobial composition.

Candida parapsilosis = assay: Rate of fungus kill in use-solution; conditions: 80 ppm total peracid, 25° C.
Description: (§10) Routine transfer to Sabouraud Dextrose agar slants maintained cultures of Candida parapsilosis (from blueberry processing water), Rhodotorula species (from celery processing water), Cryptococcus species (from potato processing water) and Zygosaccharomyces bailii (ATCC 60483). Growth was harvested by adding 5 mL of phosphate buffered water to the slant, mixing and then transferring the suspension into 90 mL of phosphate buffered water. The resulting suspension was used for testing.
as §7, §8, §9

Cryptococcus species = assay: Rate of fungus kill in use-solution; conditions: Cryptococcus sp., 80 ppm total peracid, 25° C.
Description: as §10, §7, §8, §9

Rhodotorula species = assay: Rate of fungus kill in use-solution; conditions: Rhodotorula sp., 80 ppm total peracid, 25° C.
Description: as §10, §7, §8, §9

[1] = test system: Zygosaccharomyces bailii (ATCC 60483); assay: Rate of fungus kill in use-solution; conditions: Z. bailii, 80 ppm total peracid, 25° C.
Description: as §10, §7, §8, §9

coliform bacteria [2] = assay: Antimicrobial efficacy on fresh-cut vegetables, coliform bacteria; conditions: 30 second exposure to process water
Description: as §1, §2, §3, §4, §5

coliform bacteria [3] = assay: Antimicrobial efficacy in fresh-cut vegetable processing water, Coliform Count
Description: as §1, §2
(§11) During processing of each vegetable, 10 water samples were collected in sterile plastic bags containing an inactivating agent (0.01% sodium thiosulfate). 1 mL quantities were plated on Petrifilm® (3M, Inc.) Aerobic Plate Count, Coliform Count and Yeast & Mold Count media. Validation of these media using this procedure was performed prior to initiating testing (data not presented). Serial 100-fold dilutions were also plated. Petrifilms were incubated at 35° C. for 24 hours (Coliform Count), 35° C. for 48 hours (Aerobic Plate Count), or at room temperature for 72 hours (Yeast & Mold Count). The number of microorganisms was counted following incubation.
as §5

Escherichia coli O157:H7 = assay: Kill of pathogenic bacteria on tomato surfaces and in the wash solution
Description: (§12) The following procedure was employed for determining whether a composition killed pathogenic bacteria (e.g. Escherichia coli O157:H7, Listeria monocytogenes, or Salmonella javiana) on the surface of a fruit or vegetable. Bacteria were applied to tomato surfaces and allowed a 1-2 hour attachment time. Contaminated tomatoes were submersed in a peroxyacetic/peroxyoctanoic acid mixture according to the present invention (at a level yielding 40 ppm peroxyacetic acid) or water for 1 minute without agitation. After 1 minute, tomatoes were transferred to a solution that neutralized the peroxy acids and peroxides and massaged for 3 minutes to remove attached bacteria. The number of attached bacteria that survived treatment was determined using standard agar plating technique. The number of bacteria that “fell off” the tomato into the water or peroxyacetic/peroxyoctanoic acid mixture according to the present invention, and survived, was also determined by neutralization and agar plating technique. A similar experiment was conducted employing a peroxyacetic acid antimicrobial composition.

Salmonella javiana = assay: as above
Description: as §12

total aerobic bacteria = assay: Antimicrobial efficacy in fresh-cut vegetable processing water, Aerobic Plate Count
Description: as §1, §2, §11, §5

yeast and mold = assay: Antimicrobial efficacy in fresh-cut vegetable processing water, Yeast & Mold Count
Description: as §1, §2, §11, §5

[4] = Cabbage, peracid POAA agent 26 ppm, POAA/POOA agent 29 ppm
[5] = Celery, peracid POAA agent 38 ppm, POAA/POOA agent 39 ppm
[6] = Potatoes, peracid POAA agent 54 ppm, POAA/POOA agent 32 ppm
[7] = Cabbage process water, average peracid from POAA agent 26 ppm, from POAA/POOA agent 29 ppm
[8] = Celery process water, average peracid from POAA agent 38 ppm, from POAA/POOA agent 39 ppm
[9] = Potatoes process water, average peracid from POAA agent 54 ppm, from POAA/POOA agent 32 ppm

CC(=O)OO [POAA, peroxyacetic acid]
Average log reduction on fresh-cut vegetables, Aerobic Bacteria Reduction (Aerobic Bacteria; [4]): 0.84 log
Average log reduction on fresh-cut vegetables, Aerobic Bacteria Reduction (Aerobic Bacteria; [5]): 1.07 log
Average log reduction on fresh-cut vegetables, Aerobic Bacteria Reduction (Aerobic Bacteria; [6]): 1.54 log
Average log reduction of mold (Cladosporium species; 2 Minutes): 1.86 log
Average log reduction of mold (Cladosporium species; 5 Minutes): 4.18 log
Average log reduction of mold (Cladosporium species; 10 Minutes): >4.18 log
Average log reduction of mold (Aspergillus species; 2 Minutes): 0 log
Average log reduction of mold (Aspergillus species; 5 Minutes): 0 log
Average log reduction of mold (Aspergillus species; 10 Minutes): 0 log
Average log reduction of mold (Penicillium species; 2 Minutes): 0 log
Average log reduction of mold (Penicillium species; 5 Minutes): 0.45 log
Average log reduction of mold (Penicillium species; 10 Minutes): 1.52 log
Average log reduction on fresh-cut vegetables, Yeast & Mold Reduction (Yeast & Mold; [4]): 0.77 log
Average log reduction on fresh-cut vegetables, Yeast & Mold Reduction (Yeast & Mold; [5]): 0.68 log
reduction of L. monocytogenes on tomatoes (Listeria monocytogenes; 20 ppm POAA): 84%
reduction of L. monocytogenes on tomatoes (Listeria monocytogenes; 40 ppm POAA): 95%
reduction of L. monocytogenes on tomatoes (Listeria monocytogenes; 60 ppm POAA): 98%
Average log reduction of yeast (Candida parapsilosis; 2 Minutes): 1.49 log
Average log reduction of yeast (Candida parapsilosis; 5 Minutes): 3.42 log
Average log reduction of yeast (Candida parapsilosis; 30 Seconds): 0.34 log
Average log reduction of yeast (Cryptococcus species; 2 Minutes): >7.08 log
Average log reduction of yeast (Cryptococcus species; 5 Minutes): >7.08 log
Average log reduction of yeast (Cryptococcus species; 30 Seconds): >7.08 log
Average log reduction of yeast (Rhodotorula species; 2 Minutes): >3.88 log
Average log reduction of yeast (Rhodotorula species; 5 Minutes): >3.88 log
Average log reduction of yeast (Rhodotorula species; 30 Seconds): >3.88 log
Average log reduction of yeast ([1]; 2 Minutes): 0.18 log
Average log reduction of yeast ([1]; 5 Minutes): 0.94 log
Average log reduction of yeast ([1]; 30 Seconds): 0.16 log
Average log reduction on fresh-cut vegetables, Coliform Bacteria Reduction (coliform bacteria [2]; [4]): >0.88 log
Average log reduction on fresh-cut vegetables, Coliform Bacteria Reduction (coliform bacteria [2]; [5]): 0.77 log
Average log reduction on fresh-cut vegetables, Coliform Bacteria Reduction (coliform bacteria [2]; [6]): >1.58 log
Average number of microorganisms in process water, Coliform Count (coliform bacteria [3]; [7]): 0 log CFU/mL
Average number of microorganisms in process water, Coliform Count (coliform bacteria [3]; [8]): 0 log CFU/mL
Average number of microorganisms in process water, Coliform Count (coliform bacteria [3]; [9]): 0 log CFU/mL
reduction in the E. coli O157:H7 in tomato wash water (Escherichia coli O157:H7; 20 ppm POAA): 57%
reduction in the E. coli O157:H7 in tomato wash water (Escherichia coli O157:H7; 40 ppm POAA): 88%
reduction in the E. coli O157:H7 in tomato wash water (Escherichia coli O157:H7; 60 ppm POAA): 94%
reduction in amounts of S. javiana (Salmonella javiana; 20 ppm POAA): no reduction
reduction in amounts of S. javiana (Salmonella javiana; 40 ppm POAA): no reduction
reduction in amounts of S. javiana (Salmonella javiana; 60 ppm POAA): 91%
Average number of microorganisms in process water, Aerobic Plate Count (total aerobic bacteria; [7]): 1.92 log CFU/mL
Average number of microorganisms in process water, Aerobic Plate Count (total aerobic bacteria; [8]): 2.02 log CFU/mL
Average number of microorganisms in process water, Aerobic Plate Count (total aerobic bacteria; [9]): 0.92 log CFU/mL
Average number of microorganisms in process water, Yeast & Mold Count (yeast and mold; [7]): 2.02 log CFU/mL
Average number of microorganisms in process water, Yeast & Mold Count (yeast and mold; [8]): 1.86 log CFU/mL
Average number of microorganisms in process water, Yeast & Mold Count (yeast and mold; [9]): 5.48 log CFU/mL

From patent US9247738B2, “Method and composition for inhibition of microbial growth in aqueous food transport and process streams” (Ecolab USA Inc., priority 2000, dated 2016)
